The results in this text go back to patent US8546377B2 (AbbVie Inc., priority 2009, dated 2013).

Like-named read-outs stand apart in the source and are kept apart here.

The target in one assay is T1, 5HT2B receptors (Homo sapiens, UniProt P41595).
T1 construct: expressed in transfected cells; host or cells: CHO-K1 cells
The experiment in a line: Human 5-HT2B functional assay in CHO-K1 cells (calcium flux, FLIPR). The class given is cell-based. Put shortly: (§1)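 EC50 came from a 4-parameter logistic fit, with Emax expressed relative to serotonin, of intracellular Ca2+ rises read on FLIPR at 480/530 nm, 25° C, over 3 min. Compounds ran from 10 μM in six 1:10 steps (0.2% DMSO) on serum-starved CHO-K1 transfectants pre-loaded 60 min with Ca4 dye and probenecid.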

For a further assay, the target named is T2, h-5-HT6 receptor (Homo sapiens, UniProt P50406).
T2 construct: expressed in transfected cells; host or cells: HEK293 cells (membrane preparation)
T2 sequence (P50406 whole entry): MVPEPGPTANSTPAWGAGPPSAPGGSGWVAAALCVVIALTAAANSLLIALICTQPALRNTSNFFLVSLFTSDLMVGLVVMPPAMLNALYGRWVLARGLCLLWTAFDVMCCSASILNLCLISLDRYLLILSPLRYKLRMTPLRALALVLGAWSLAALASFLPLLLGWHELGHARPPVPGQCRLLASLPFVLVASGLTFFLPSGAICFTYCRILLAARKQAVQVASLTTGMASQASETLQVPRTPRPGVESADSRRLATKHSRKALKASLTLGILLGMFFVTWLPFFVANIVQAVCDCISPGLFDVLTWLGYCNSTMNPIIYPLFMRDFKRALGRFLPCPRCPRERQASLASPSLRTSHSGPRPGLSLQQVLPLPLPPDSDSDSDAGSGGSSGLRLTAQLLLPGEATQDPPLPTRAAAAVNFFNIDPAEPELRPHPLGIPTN
The experiment in a line: Human 5-HT6 receptor radioligand binding assay ([3H]-LSD, HEK293 membranes). As for the experimental part: (iv) Human 5-HT6 Receptor Radioligand Binding Assay
Preparation of Membranes by Ultrasonic Treatment and Differential Centrifugation
Cells from stable clonal cell lines expressing the corresponding receptor (5-HT6) were washed with PBS (without Ca^++, Mg^++) and harvested in PBS with 0.02% EDTA. The cells were collected by centrifugation at 500 g for 10 minutes at 4° C., washed with PBS and centrifuged (500 g, 10 minutes at 4° C.). The pellets were stored at −80° C. until use. For membrane preparation, the thawed cell pellet was resuspended in ice-cold sucrose buffer (0.25 M sucrose, 10 mM HEPES (pH 7.4), 1 mM phenylmethylsulfonyl fluoride (PMSF) in DMSO, 5 μg/ml Pepstatin-A, 3 mM EDTA, 0.025% Bacitracin) and homogenized with a Branson Sonifier W-250 (Settings: Timer 4; Output Control 3; Duty Cycle constant; 2 to 3 cycles). Cell disruption was checked with the aid of a microscope. Remaining unbroken cells were pelleted at 1,000 g for 10 minutes at 4° C. The sucrose buffer supernatant was then centrifuged at 60,000 g for 1 hour at 4° C. (Beckman Ultrazentrifuge XL 80). The pellet was resuspended in 30 mL of ice-cold Tris buffer (20 mM TRIS (pH 7.4), 5 μg/mL Pepstatin A, 0.1 mM PMSF, 3 mM EDTA) by pipetting through a 10 mL serological pipet and centrifuged for 1 hour at 4° C. at 60,000 g. A final resuspension was performed in a small volume of ice-cold Tris buffer (see above) by pressing through a serological pipet followed by ultrasonic treatment with a Branson Sonifier W-250 (Settings: Timer 1; Output Control 3; Duty Cycle constant; 1 cycle). Protein concentration was determined (BCA-Kit; Pierce) and aliquots stored at −80° C. or in liquid nitrogen for long-term storage.
Receptor Binding Experiments
All receptor binding experiments were carried out in the corresponding assay buffer in a total volume of 200 μL in the presence of various concentrations of test compound (10^−5 M to 10^−9 M, tenfold serial dilution, duplicate determinations). The assays were terminated by filtration on polyethylenimine (PEI 0.1% or 0.3%) presoaked Packard Unifilter Plates (GF/C or GF/B) with a Tomtec MachIII U 96 well-plate harvester. After the plates had been dried for 2 hours at 55° C. in a drying chamber scintillation cocktail (BetaPlate Scint; PerkinElmer) was added. Radioactivity was measured in a Microbeta Trilux two hours after the addition of the scintillation mixture.
5-HT6 Receptor Binding Assay
HEK293 cells stably expressing the h-5-HT6 receptor (NCBI Reference Sequence XM 001435) were cultured in RPMI1640 medium supplemented with 25 mM HEPES, 10% fetal calf serum and 1-2 mM glutamine. The membrane preparation was performed as described above. […] On the day of the assay, the membranes were thawed, diluted in assay buffer (50 mM Tris-HCl, 5 mM CaCl2, 0.1% ascorbic acid, 10 μM pargyline, pH 7.4) to a concentration of 8 μg protein/assay and homogenized by gentle vortexing. […] Non-specific binding was defined with 1 μM methiothepin. The binding reaction was carried out for 3.5 hours at room temperature. During the incubation, the plates were shaken on a plate shaker at 100 rpm and terminated by filtration on Packard Unifilter GF/C (0.1% PEI) plates, followed by 2 wash cycles with ice-cold 50 mM Tris-HCl, 5 mM CaCl2.
Data derived from liquid scintillation counting were analyzed by iterative non-linear regression analysis with the use of the Statistical Analysis System (SAS): a program similar to “LIGAND” as described by Munson and Rodbard (Anal. Biochem. 1980, 107, 220-239). Fitting was performed according to formulae described by Feldman (Anal. Biochem. 1972, 48, 317-338). IC50, nH and Ki values were expressed as geometrical mean.
The results of the receptor binding studies are expressed as receptor binding constants Ki(5-HT6) as described herein before, and given in Table 5.

Assay [1] addresses T3, 5HT2C receptors (Homo sapiens, UniProt P28335).
T3 sequence (P28335 33-458): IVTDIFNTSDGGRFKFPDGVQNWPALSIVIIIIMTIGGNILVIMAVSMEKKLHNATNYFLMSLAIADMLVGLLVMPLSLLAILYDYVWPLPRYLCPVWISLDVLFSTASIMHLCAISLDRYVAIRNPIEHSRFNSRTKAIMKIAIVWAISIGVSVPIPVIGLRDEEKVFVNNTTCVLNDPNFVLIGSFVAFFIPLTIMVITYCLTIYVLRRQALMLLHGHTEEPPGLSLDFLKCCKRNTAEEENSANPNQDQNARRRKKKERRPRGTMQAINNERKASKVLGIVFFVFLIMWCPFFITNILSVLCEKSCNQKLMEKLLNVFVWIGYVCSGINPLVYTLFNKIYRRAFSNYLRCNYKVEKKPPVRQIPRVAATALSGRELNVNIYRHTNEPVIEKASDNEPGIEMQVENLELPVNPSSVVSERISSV
In words: Human 5-HT2C functional assay in CHO-K1 cells (calcium flux, FLIPR). Particulars: for Emax: CHO-K1, read-out: Emax (%), 5-HT2c Agonist Activity, CHO-K1 cells, percentage relative to the effect of serotonin. Also noted: expressed in transfected cells; host or cells: CHO-K1 cells. The assay is classed as cell-based. Put shortly: as §1

In assay [2] the target is T3, 5HT2C receptors. The experiment in a line: Human 5-HT2C functional assay in 1321N1 cells (intracellular calcium, FLIPR). On the set-up: expressed in transfected cells; host or cells: 1321N1 cells. The note with it: 1321N1 cells stably transfected, maximum calcium response; read-out: EC50 (μM), 5-HT2c Agonist Activity. The assay is classed as cell-based. How it is done:
(ii) Human 5-HT2C Functional Assay in 1321N1 Cells
Functional activity was determined by testing the effect of the compounds on intracellular calcium levels in 1321N1 cells stably transfected with the human 5-HT2C receptor. Cells were seeded into 96-well plates at 50,000 cells/well and grown overnight in tissue culture medium (DMEM with Glutamax I (Invitrogen), containing 10% dFCS, 50 μg/mL Gentamicin, 400 μg/mL Geneticin) at 37° C. and 7% CO2. Growth medium was replaced by medium without dFCS for overnight incubation. Cells were loaded with a fluorescent calcium-sensitive dye in the presence of 1% probenicid according to the manufacturer's protocol (Fluo4 AM, Molecular Devices). Serial compound dilutions (final concentrations 10^−10 to 10^−5 M) were added to the cells either alone or in the presence of serotonin (10^−9 M) and the maximum calcium response was determined using a FLIPR instrument (Molecular Devices). Concentration-response curves were fitted using a four-parameter logistic equation (GraphPad Prism). The concentration at which the compound exerts half its maximal effect is named the ‘effective concentration 50’ or ‘EC50’ and is listed in Table 2.
Emax is the maximum functional response or efficacy expressed as a percentage relative to the effect of serotonin.

Assay [3] deals with T4, human serotonin 5-HT2c receptor (Homo sapiens, UniProt P28335).
T4 construct: expressed in transfected cells; host or cells: CHO cells (membrane homogenate)
T4 sequence (P28335 33-458): T3 sequence (P28335 33-458)
The experiment in a line: Human 5-HT2C receptor radioligand binding assay (agonist site, [125I](±)DOI). The note with it: membranes of transfected CHO cells, 0.2 nM [125I](±)DOI, 15 minutes at 37° C. As for the experimental part: To determine the effectiveness of compounds having a formula (I), these compounds can be evaluated in a radioligand binding assay for the agonist site of the human serotonin 5-HT2c receptor or in vitro models of cellular function.
(i) Human 5-HT2C Receptor Radioligand Binding Assay
Affinity of compounds for the agonist site of the 5-HT2c receptor in transfected CHO cells was determined in a radioligand binding assay essentially as described by Bryant, H. U., et al., Life Sciences (1996) 59(15), 1259-1268.

The mark [4] stands for this setting: CHO-K1 cells over-expressing 5HT2B, calcium flux, read-out: EC50 (μM), 5-HT2B Agonist Activity.
Where [5] appears, read: HEK293 membranes, 1 nM [3H]-lysergic acid diethylamide, 3.5 hours at room temperature, read-out: Ki (μM), 5-HT6 Agonist Site Radioligand Binding.
[6] abbreviates: CHO-K1 cells over-expressing 5HT2C, calcium flux, read-out: EC50 (μM), 5-HT2c Agonist Activity.

T1 sequence (P41595 whole entry): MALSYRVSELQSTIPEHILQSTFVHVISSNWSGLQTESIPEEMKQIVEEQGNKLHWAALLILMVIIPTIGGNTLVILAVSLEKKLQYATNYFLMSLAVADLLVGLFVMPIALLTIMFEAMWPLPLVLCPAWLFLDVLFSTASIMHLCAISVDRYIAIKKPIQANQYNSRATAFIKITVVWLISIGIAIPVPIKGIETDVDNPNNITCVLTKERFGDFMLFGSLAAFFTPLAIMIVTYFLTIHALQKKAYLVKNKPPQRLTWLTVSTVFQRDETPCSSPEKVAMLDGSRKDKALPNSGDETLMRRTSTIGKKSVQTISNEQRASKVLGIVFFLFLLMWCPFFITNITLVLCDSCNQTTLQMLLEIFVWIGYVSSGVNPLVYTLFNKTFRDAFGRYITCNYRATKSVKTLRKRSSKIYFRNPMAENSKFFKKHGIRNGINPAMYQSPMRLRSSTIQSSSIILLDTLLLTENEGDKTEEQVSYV

Consider `CN1CCN2c3cccc(F)c3OCC[C@H]2C1` [Example 231, (4aS)-8-fluoro-3-methyl-2,3,4,4a,5,6-hexahydro-1H-pyrazino[2,1-d][1,5]benzoxazepine], for which the concentration for a half-maximal effect (EC50) at 5HT2B receptors was above 10 µM; on 5HT2C receptors [1] it was 0.004 µM. For the same molecule, the Ki on h-5-HT6 receptor turned out to be 0.855 µM. In addition, the Emax at 5HT2C receptors [1] was 85%.
Consider `Cc1cccc2c1OCC[C@H]1CNCCN21` [Example 226, (4aS)-8-methyl-2,3,4,4a,5,6-hexahydro-1H-pyrazino[2,1-d][1,5]benzoxazepine], for which, on 5HT2B receptors, the concentration giving a half-maximal response (EC50) was above 10 µM. This molecule came in with a Ki on h-5-HT6 receptor of 2.06 µM. Besides, on 5HT2C receptors [1], the half-maximal effective concentration (EC50) turned out to be 0.0008 µM and the Emax came out at 90%.
As for `O=C1CC2CNCCN2c2ccc(S(=O)(=O)c3ccccc3)cc2N1` (centres unmarked) [Example 112, 9-(phenylsulfonyl)-1,2,3,4,4a,5-hexahydropyrazino[1,2-a][1,5]benzodiazepin-6(7H)-one], the results for the EC50 on 5HT2B receptors (setting [4]) and at 5HT2C receptors [1] (setting [6]) were 0.9 µM and above 10 µM, respectively. Further, on 5HT2B receptors (CHO-K1 cells, percentage relative to the effect of serotonin, read-out: Emax (%), 5-HT2B Agonist Activity), the Emax came to 90%. Also, the Ki at h-5-HT6 receptor (setting [5]) is 0.017 µM.
Take `O=C1NCC2CNCCN2c2ccc(NS(=O)(=O)c3cccc(C(F)(F)F)c3)cc21` (centres unmarked) [Example 184, N-(7-oxo-1,2,3,4,4a,5,6,7-octahydropyrazino[1,2-a][1,4]benzodiazepin-9-yl)-3-(trifluoromethyl)benzenesulfonamide]: the EC50 on 5HT2B receptors (setting [4]) and at 5HT2C receptors [1] (setting [6]) was above 10 µM throughout. Also, the inhibition constant (Ki) on h-5-HT6 receptor (setting [5]) is 0.008 µM.
Consider `O=C1CC2CNCCN2c2ccc(NS(=O)(=O)c3ccccc3)cc2N1` (centres unmarked) [Example 76, N-(6-oxo-1,2,3,4,4a,5,6,7-octahydropyrazino[1,2-a][1,5]benzodiazepin-9-yl)benzenesulfonamide], for which the Ki on h-5-HT6 receptor (setting [5]) was 0.025 µM. For the same molecule, the concentration for a half-maximal effect (EC50) at 5HT2C receptors [1] (setting [6]) is above 100 µM.
Take `O=C1NCC2CN(Cc3ccccc3)CCN2c2ccc(NS(=O)(=O)c3ccccc3)cc21` (centres unmarked) [Example 47, N-(3-benzyl-7-oxo-1,2,3,4,4a,5,6,7-octahydropyrazino[1,2-a][1,4]benzodiazepin-9-yl)benzenesulfonamide]: the EC50 on 5HT2C receptors [2] is above 10 µM. The Ki came out at 0.821 µM at h-5-HT6 receptor (setting [5]) and 33 µM in assay [3].
